Reference: US6090786A, “Serine proteases, their activity and their synthetic inhibitors” (priority 1994, dated 2000)

Legend:
[1] = Functional stability of DPPIV inhibitors in the reaction medium (buffer); assay type: physicochemical; conditions: 50 mM TRIS buffer pH 8.3, 37° C.
Protocol: (§1) To determine the functional stability of the inhibitors in the reaction medium, a 10 mM stock solution in DMSO was diluted 50-fold in 50 mM TRIS buffer pH 8.3 and incubated at 37° C. To determine the functional stability in plasma, a 50 mM stock solution in DMSO was diluted 50-fold in fresh or freshly frozen citrated plasma from a healthy donor and incubated at 37° C. At specific time intervals an aliquot was withdrawn, added to an equal volume of DPPIV diluted in buffer or to an equal volume of plasma and the kinetics of inactivation were determined as described under b). The reduction in observed pseudo-first order rate constant is a measure for the amount of functional inhibitor lost during the incubation and allowed to estimate the half-life of the inhibitors in buffer and plasma. The following table lists the results.

[2] = Functional stability of DPPIV inhibitors in human citrated plasma; assay type: in vitro ADME; conditions: 37° C.
Protocol: as §1

[3] = In vivo testing in rabbits, single intravenous injection
Protocol: In order to test the effect of the inhibitors in vivo rabbits were injected with the inhibitor and their DPPIV activity was tested using Gly-Pro-4-Methoxy-2-naphthylamide as the substrate.
4 Rabbits received a single 5 ml intravenous-(ear vein) injection of physiological saline cobtaining 0 (control), 1 mg, 5 mg and 10 mg AB 3, respectively. Blood samples were taken from the central ear artery 5 min before injection and at different points of time, directly after the injection, after 4 hrs and after 1, 2, 3, 6 and 13 days.
Counts of white and red blood cells and platelets, serum DPPIV activity and serum bilirubin, GOT, GPT, GT, LDH, creatinine, Na, K, CK and urea were evaluated.

**Q.** Which t1/2 in buffer [1] does the source give for `Cl.O=C([C@@H]1CCCN1)N1CCCC1P(=O)(Oc1ccccc1)Oc1ccccc1` (stereo partly drawn) [Pro-Pro^P -(OPh)2, Diphenyl (S,R)-1-[(S)-prolyl]pyrrolidine-2-phophonate hydrochloride] here?
**A.** 3.5 ± 0.1 h

**Q.** What about the t1/2 in plasma [2] of the same compound?
**A.** 4.1 ± 0.3 h

**Q.** And the “death of the animal” value ([3]; rabbit receiving 10 mg i.v.)?
**A.** died after 11 days

**Q.** What about the “biochemical and hematological parameters” value ([3]; rabbit receiving 10 mg i.v., at day 6) of the same compound?
**A.** normal

**Q.** What about the “cell counts (white and red blood cells, platelets) and serum biochemical parameters” value ([3]; rabbits, single i.v. injection of 1 mg, 5 mg or 10 mg, up to 13 days, DPPIV enzyme activity excepted) of the same compound?
**A.** No differences
